Data set [1] can be described thus: Determination of oral bioavailability by urinary recovery as parent compound. Particulars: gavage, 50 mg/kg; urine collected for 24 and 48 hours post-dose.
Procedure: Long Evans Rats were administered the compound to be tested by gavage at a dose of 50 mg/kg. The urine was collected for 24 and 48 hours post-dose, ultrafiltered, and analysed by reverse-phase high-pressure liquid chromatography. The oral bioavailability of the compound was expressed as the percent of the dose excreted in the urine as the parent unesterified compound.
The test system of another data set is Vero cells. In words: Cell toxicity, cell growth inhibition assay (MTT uptake). Format: cell-based. Particulars: 50% inhibition of cell viability at 96 hours. How it is done:
Cell toxicity is assessed in cell growth inhibition assay. Subconfluent cultures of Vero cells grown on 96-well microtiter dishes are exposed to different dilutions of drug, and cell viability determined daily on replicate cultures using uptake of a tetrazolium dye (MTT). The concentration required for a 50% inhibition of cell vaibility at 96 hours is termed CCID₅₀.

The test system of data set [2] is Varicella Zoster Virus (VZV). In words: VZV plaque reduction assay in monolayers of MRC5 cells. Format: cell-based. The note with it: MRC5 cells (human embryonic lung), read-out: ID₅₀(µm) VZV. How it is done: Varicella Zoster Virus (VZV) is assayed in monolayers of MRC5 cells (human embryonic lung) in multiwell trays. Activity of compounds is determined in the plaque reduction assay, in which a cell monolayer is infected with a suspension of VZV. A range of concentrations of the compound to be tested (of known molarity) is then incorporated into the cell monolayer. Plaque numbers of each concentration are expressed as percentage of the control and a dose-response curve is drawn. From this curve the 50% inhibitory concentration (IC₅₀) is estimated.

Experimental findings from EP0346108A2, “Anti-infective nucleosides” (THE WELLCOME FOUNDATION LIMITED, priority 1988, dated 1989) are described below.

Take `CC#Cc1cn([C@@H]2O[C@H](COC(=O)C(C)C)[C@@H](O)[C@@H]2O)c(=O)[nH]c1=O` [Example 1, 1-(5-0-Isobutyryl-β-D-arabinofuranosyl)-5-prop-1-ynyluracil]: in data set [1], the “Urinary Recovery (% of dose) as parent compound” value is 40.35 % of dose.
As to `CC#Cc1cn([C@@H]2O[C@H](COC(=O)[C@@H](N)C(C)C)[C@@H](O)[C@@H]2O)c(=O)[nH]c1=O` [Example 20, 5-Prop-1-ynyl-1-(5-0-L-valyl-β-D-arabinofuranosyl)uracil], the “Urinary Recovery (% of dose) as parent compound” value in data set [1] is recorded as 35.90 % of dose. The compound further registered a CCID₅₀ in the data set with Vero cells greater than 500. Further, the IC50 in data set [2] was less than 1 µM.
